Drawing on patent US7935722B2 (Eli Lilly and Company, priority 2005, dated 2011), this text covers Ki, EC50 and Emax for 27 compounds.

For test [1], the target named is T1, human AR (androgen receptor) (Homo sapiens, UniProt P10275).
T1 construct: expressed in transfected cells; host or cells: 293 cells (293-AR lysate)
T1 sequence (P10275 1-920): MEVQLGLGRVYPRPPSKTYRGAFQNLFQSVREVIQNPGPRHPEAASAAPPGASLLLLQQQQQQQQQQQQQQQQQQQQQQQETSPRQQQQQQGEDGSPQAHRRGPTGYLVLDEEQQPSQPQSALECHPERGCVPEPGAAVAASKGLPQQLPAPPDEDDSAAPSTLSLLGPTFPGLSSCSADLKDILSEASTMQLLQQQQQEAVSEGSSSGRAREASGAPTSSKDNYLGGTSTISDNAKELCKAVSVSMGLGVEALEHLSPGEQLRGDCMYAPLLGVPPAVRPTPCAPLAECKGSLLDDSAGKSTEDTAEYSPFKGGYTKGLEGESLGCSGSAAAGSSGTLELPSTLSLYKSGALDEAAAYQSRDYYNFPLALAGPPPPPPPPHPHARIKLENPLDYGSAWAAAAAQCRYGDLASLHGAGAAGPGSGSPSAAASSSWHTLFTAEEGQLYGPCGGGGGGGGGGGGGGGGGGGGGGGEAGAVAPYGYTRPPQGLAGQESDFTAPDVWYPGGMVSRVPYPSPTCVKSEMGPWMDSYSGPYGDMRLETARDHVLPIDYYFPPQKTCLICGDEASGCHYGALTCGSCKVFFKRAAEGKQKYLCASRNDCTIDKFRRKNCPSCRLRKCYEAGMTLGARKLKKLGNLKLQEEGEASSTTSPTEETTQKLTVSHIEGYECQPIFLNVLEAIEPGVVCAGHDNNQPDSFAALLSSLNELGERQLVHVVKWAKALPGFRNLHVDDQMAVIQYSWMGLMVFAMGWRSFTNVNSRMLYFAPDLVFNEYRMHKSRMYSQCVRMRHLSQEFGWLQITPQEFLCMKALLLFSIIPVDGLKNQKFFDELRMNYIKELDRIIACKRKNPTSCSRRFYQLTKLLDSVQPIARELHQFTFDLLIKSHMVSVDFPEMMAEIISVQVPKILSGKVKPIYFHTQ
In words: Steroid hormone nuclear receptor binding assay, AR binding. The method in brief:
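Competition binding with lysates of 293 cells overexpressing human AR, [3H]-methyltrienolone tracer, compounds from about 0.01 nM to 10 μM, overnight at 4 °C; non-specific binding set with 500 nM methyltrienolone. Bound tracer counted by scintillation after charcoal-dextran separation; IC50 converted to Ki by Cheng-Prusoff using Kd from saturation binding.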

Test [2] concerns the target T2, human androgen receptor (AR) (Homo sapiens, UniProt P10275).
T2 construct: expressed in transfected cells; host or cells: mouse myoblast C2C12 cells, transiently co-transfected
T2 sequence (P10275 1-920): T1 sequence (P10275 1-920)
In words: C2C12 AR/ARE reporter assay. Type of test: cell-based. In outline: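 Mouse C2C12 myoblasts co-transfected with AR/ARE reporter were plated in charcoal-stripped serum and treated for 48 h with compound from about 0.01 nM to 10 μM. Luciferase activity gave EC50 by 4-parameter logistic fit. Efficacy is expressed as % of maximal stimulation by 10 nM methyltrienolone.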

The mark [3] stands for this setting: C2C12, read-out: C2C12 % Efficacy.
[4] abbreviates: average of n trials, read-out: AR binding Ki.
[5] abbreviates: C2C12 AR/ARE reporter assay, average of n trials, read-out: C2C12 % Efficacy.
The mark [6] stands for this setting: C2C12 AR/ARE reporter assay, average of n trials, read-out: C2C12 EC50.

Read-outs that look alike come from different tables or passages of the source.

For orientation: Ki means the dissociation constant of the complex between target and ligand, obtained from inhibition or displacement. By EC50 is commonly meant the midpoint of the concentration-response curve. Regarding `CC(C)C(=O)N[C@@H]1CCc2c(c3cc(C#N)ccc3n2Cc2cnccn2)C1` [Example 160, (R)-N-(6-Cyano-9-pyrazin-2-ylmethyl-2,3,4,9-tetrahydro-1H-carbazol-3-yl)-isobutyramide], in test [1], the Ki came out at 19.8 nM. Also, the midpoint of the response in test [2], the EC50, lay at 6.3 nM. Also, in test [2] (setting [3]), the Emax stood at 89.5%.

Compound `CC(C)C(=O)N[C@@H]1CCc2c(c3cc(C#N)ccc3n2Cc2ccccn2)C1` [Example 161, (R)-N-(6-cyano-9-pyridin-2-ylmethyl-2,3,4,9-tetrahydro-1H-carbazol-3-yl)-isobutyramide] came in with a Ki in test [1] of 6.8 nM. For the same compound, the EC50 in test [2] was determined as 3.1 nM. In test [2] (setting [3]), the Emax worked out at 95.7%.

For `CC(C)C(=O)NC1CCc2c(c3cc(OC(F)(F)F)ccc3n2Cc2cccc(F)n2)C1` (stereo not drawn) [Example 162, N-[9-(6-Fluoro-pyridin-2-ylmethyl)-6-trifluoromethoxy-2,3,4,9-tetrahydro-1H-carbazol-3-yl]-isobutyramide], the Ki in test [1] was 8.6 nM. In addition, in test [2], it took 9.2 nM to reach a half-maximal effect (EC50). The Emax in test [2] (setting [3]) was 81.7%.

For `O=C(NC1CCc2c(c3cc(OC(F)(F)F)ccc3n2Cc2cccc(F)n2)C1)C1CC1` (stereo not drawn) [Example 163], the Ki in test [1] (setting [4]) came to 12.7 nM. Moreover, in test [2] (setting [5]), the Emax turned out to be 75.2%. In addition, the EC50 in test [2] (setting [6]) came out at 37.3 nM.

`COC(=O)NC1CCc2c(c3cc(OC(F)(F)F)ccc3n2Cc2cccc(F)n2)C1` (stereo not drawn) [Example 164]: the Ki in test [1] (setting [4]) is 42.3 nM. The Emax in test [2] (setting [5]) is 41.8%. Moreover, the EC50 in test [2] (setting [6]) worked out at 1230 nM.

In the case of `CN(C)C(=O)NC1CCc2c(c3cc(OC(F)(F)F)ccc3n2Cc2cccc(F)n2)C1` (stereo not drawn) [Example 165], the Ki in test [1] was found to be 14.2 nM. The compound further yielded an EC50 in test [2] of 15.3 nM. In addition, the Emax in test [2] (setting [3]) is 74.6%.

`CC(C)C(=O)NC1CCc2c(c3cc(OC(F)(F)F)ccc3n2Cc2cccc(F)c2)C1` (stereo not drawn) [Example 166] yielded a Ki in test [1] of 5.3 nM. In addition, the EC50 in test [2] worked out at 6.2 nM. For the same compound, the Emax in test [2] (setting [3]) came to 81.1%.

In turn, `O=C(NC1CCc2c(c3cc(OC(F)(F)F)ccc3n2Cc2cccc(F)c2)C1)C1CC1` (stereo not drawn) [Example 167] had a Ki in test [1] of 7.8 nM. The EC50 in test [2] came out at 13.7 nM. Besides, in test [2] (setting [3]), the Emax was 82.4%.

In the case of `COC(=O)NC1CCc2c(c3cc(OC(F)(F)F)ccc3n2Cc2cccc(F)c2)C1` (stereo not drawn) [Example 168], in test [1] (setting [4]), the Ki worked out at 37 nM. Moreover, the Emax in test [2] (setting [5]) was 56.7%. The EC50 in test [2] (setting [6]) was 280 nM.

As for `CN(C)C(=O)NC1CCc2c(c3cc(OC(F)(F)F)ccc3n2Cc2cccc(F)c2)C1` (stereo not drawn) [Example 169], the Ki in test [1] (setting [4]) is 8.3 nM. Also, the Emax in test [2] (setting [5]) was 76.8%. Also, the half-maximal effective concentration (EC50) in test [2] (setting [6]) is 6.5 nM.

Turning to `O=C(NC1CCc2c(c3cc(Br)ccc3n2Cc2cccc(F)c2)C1)C1CC1` (stereo not drawn) [Example 170, Cyclopropanecarboxylic acid [6-bromo-9-(3-fluoro-benzyl)-2,3,4,9-tetrahydro-1H-carbazol-3-yl]-amide], the Ki in test [1] is 5.9 nM. The EC50 in test [2] was 22.4 nM. Moreover, the Emax in test [2] (setting [3]) is 67.2%.

Regarding `CC[C@@H](C)C(=O)NC1CCc2c(c3cc(Br)ccc3n2Cc2cccc(F)c2)C1` (stereo partly drawn) [Example 171], the Ki in test [1] (setting [4]) came to 8.2 nM. Further, the Emax in test [2] (setting [5]) was found to be 63.5%. In addition, in test [2] (setting [6]), the EC50 is 411 nM.

For the compound `O=C(NC1CCc2c(c3cc(Br)ccc3n2Cc2cccc(F)c2)C1)C(F)(F)F` (stereo not drawn) [Example 174], the Ki in test [1] (setting [4]) was determined as 7.1 nM. For the same compound, the Emax in test [2] (setting [5]) was 65.2%. Besides, the EC50 in test [2] (setting [6]) was 88 nM.

The compound `CCC(=O)NC1CCc2c(c3cc(Br)ccc3n2Cc2cccc(F)c2)C1` (stereo not drawn) [Example 175] returned a Ki in test [1] of 3.2 nM. In test [2], it took 11.2 nM to reach a half-maximal effect (EC50). Further, in test [2] (setting [3]), the Emax is 80.2%.

Turning to `CN(C)C(=O)NC1CCc2c(c3cc(Br)ccc3n2Cc2cccc(F)c2)C1` (stereo not drawn) [Example 176, 3-[6-Bromo-9-(3-fluoro-benzyl)-2,3,4,9-tetrahydro-1H-carbazol-3-yl]-1,1-dimethyl-urea], the Ki in test [1] is 7.8 nM. Also, a half-maximal effect in test [2] (EC50) was put at 46 nM. The Emax in test [2] (setting [3]) turned out to be 61.5%.

In the case of `N#Cc1ccc2c(c1)c1c(n2Cc2cccc(F)c2)CCC(NS(=O)(=O)C2CC2)C1` (stereo not drawn) [Example 177, Cyclopropanesulfonic acid[6-cyano-9-(3-fluoro-benzyl)-2,3,4,9-tetrahydro-1H-carbazol-3-yl)-amide], affinity in test [1] was put at a Ki of 3.8 nM. In test [2], the EC50 was determined as 102 nM. Besides, the Emax in test [2] (setting [3]) was 75.2%.

As to `CN(C)C(=O)NC1CCc2c(c3cc(C#N)ccc3n2Cc2cccc(F)c2)C1` (stereo not drawn) [Example 178, 3-[6-Cyano-9-(3-fluorobenzyl)-2,3,4,9-tetrahydro-1H-carbazol-3-yl]-1,1-dimethylurea], in test [1] (setting [4]), the Ki worked out at 5.9 nM. Also, in test [2] (setting [5]), the Emax amounted to 81.8%. Further, the EC50 in test [2] (setting [6]) was determined as 11.5 nM.

As for `CNC(=O)NC1CCc2c(c3cc(C#N)ccc3n2Cc2cccc(F)c2)C1` (stereo not drawn) [Example 179, 1-[6-Cyano-9-(3-fluorobenzyl)-2,3,4,9-tetrahydro-1H-carbazol-3-yl]-3-methyl-urea], the Ki in test [1] (setting [4]) came out at 14.6 nM. Besides, the Emax in test [2] (setting [5]) was 114%. In test [2] (setting [6]), the EC50 amounted to 24.1 nM.

In turn, `CON(C)C(=O)NC1CCc2c(c3cc(C#N)ccc3n2Cc2cccc(F)c2)C1` (stereo not drawn) [Example 180, 3-[6-Cyano-9-(3-fluorobenzyl)-2,3,4,9-tetrahydro-1H-carbazol-3-yl]-1-methoxy-1-methyl-urea] showed a Ki in test [1] of 4.6 nM. In addition, the EC50 in test [2] amounted to 2.2 nM. For the same compound, the Emax in test [2] (setting [3]) came to 97%.

For the compound `CC(C)C(=O)N[C@@H]1CCc2c(c3cc(C#N)ccc3n2Cc2cccc(F)n2)C1` [Example 183, (R)-N-[6-Cyano-9-(6-fluoro-pyridin-2-ylmethyl)-2,3,4,9-tetrahydro-1H-carbazol-3-yl]-isobutyramide], the Ki in test [1] (setting [4]) stood at 4.3 nM. The Emax in test [2] (setting [5]) is 95.3%. Also, in test [2] (setting [6]), the EC50 turned out to be 0.7 nM.

Take `COC(=O)NC1CCc2c(c3cc(C#N)ccc3n2Cc2cccc(F)c2)C1` (stereo not drawn) [Example 184, [6-Cyano-9-(3-fluoro-benzyl)-2,3,4,9-tetrahydro-1H-carbazol-3-yl]-carbamic acid methyl ester]: affinity in test [1] was put at a Ki of 2.8 nM. This compound showed an EC50 in test [2] of 27.3 nM. In test [2] (setting [3]), the Emax came out at 78.9%.

Turning to `COC(=O)N[C@@H]1CCc2c(c3cc(C#N)ccc3n2Cc2ccccn2)C1` [Example 185, (6(R)-Cyano-9-pyridin-2-ylmethyl-2,3,4,9-tetrahydro-1H-carbazol-3-yl)-carbamic acid methyl ester], in test [1] (setting [4]), the Ki was 23.3 nM. Moreover, the Emax in test [2] (setting [5]) stood at 77.5%. The EC50 in test [2] (setting [6]) came to 76 nM.

Regarding `COC(=O)N[C@@H]1CCc2c(c3cc(C#N)ccc3n2Cc2cccc(F)n2)C1` [Example 186, (R)-[6-Cyano-9-(6-fluoro-pyridin-2-ylmethyl)-2,3,4,9-tetrahydro-1H-carbazol-3-yl]-carbamic acid methyl ester], the Ki in test [1] turned out to be 7.1 nM. The compound further had an EC50 in test [2] of 17.4 nM. In addition, the Emax in test [2] (setting [3]) was 103%.

`COC(=O)c1ccc2c(c1)c1c(n2Cc2cccc(F)c2)CC[C@@H](NC(=O)C(C)C)C1` [Example 187, (R)-9-(3-fluorobenzyl)-6-isobutyrylamino-6,7,8,9-tetrahydro-5H-carbazole-3-carboxylic acid methyl ester]: the affinity in test [1] corresponds to a Ki of 2.3 nM. Moreover, in test [2], the EC50 is 2.4 nM. For the same compound, the Emax in test [2] (setting [3]) was 77.8%.

With `CC(C)C(=O)N[C@@H]1CCc2c(c3cc(C(=O)O)ccc3n2Cc2cccc(F)c2)C1` [Example 188], the Ki in test [1] (setting [4]) stood at 952 nM. For the same compound, the Emax in test [2] (setting [5]) stood at 82.4%. In addition, the EC50 in test [2] (setting [6]) was 794 nM.

In turn, `CC(=O)c1ccc2c(c1)c1c(n2Cc2cccc(F)c2)CC[C@@H](NC(=O)C(C)C)C1` [Example 191, (R)-N-[6-Acetyl-9-(3-fluoro-benzyl)-2,3,4,9-tetrahydro-1H-carbazol-3-yl]-isobutyramide] yielded a Ki in test [1] of 3.3 nM. In test [2], this compound yielded an EC50 of 1.2 nM. In addition, the Emax in test [2] (setting [3]) amounted to 91.2%.

Take `N#Cc1ccc2c(c1)c1c(n2Cc2cccc(F)c2)CC[C@@H](NC(=O)C2CC2)C1` [Example 194, (R)-Cyclopropanecarboxylic acid[6-cyano-9-(3-fluorobenzyl)-2,3,4,9-tetrahydro-1H-carbazol-3-yl]amide]: the inhibitory constant (Ki) in test [1] came to 1.3 nM. The EC50 in test [2] amounted to 2 nM. Moreover, the Emax in test [2] (setting [3]) was 95.5%.
